# Source: publication PMC8489232, “Structural and catalytic characterization of Blastochloris viridis and Pseudomonas aeruginosa homospermidine synthases supports the essential role of cation–π interaction” (Acta Crystallographica. Section D, Structural Biology, 2021)
# T1: PaHSS (Pseudomonas aeruginosa, UniProt Q6X2Y9)
# T1 construct: gene CL-17; full length, codon-optimized synthetic gene in pETM-14, E. coli BL21(DE3) Gold; N-terminal 6xHis tag removed with HRV3C protease; 52 kDa monomer in solution (SEC-MALS); crystalline dimers
# T1 sequence (Q6X2Y9 1-469): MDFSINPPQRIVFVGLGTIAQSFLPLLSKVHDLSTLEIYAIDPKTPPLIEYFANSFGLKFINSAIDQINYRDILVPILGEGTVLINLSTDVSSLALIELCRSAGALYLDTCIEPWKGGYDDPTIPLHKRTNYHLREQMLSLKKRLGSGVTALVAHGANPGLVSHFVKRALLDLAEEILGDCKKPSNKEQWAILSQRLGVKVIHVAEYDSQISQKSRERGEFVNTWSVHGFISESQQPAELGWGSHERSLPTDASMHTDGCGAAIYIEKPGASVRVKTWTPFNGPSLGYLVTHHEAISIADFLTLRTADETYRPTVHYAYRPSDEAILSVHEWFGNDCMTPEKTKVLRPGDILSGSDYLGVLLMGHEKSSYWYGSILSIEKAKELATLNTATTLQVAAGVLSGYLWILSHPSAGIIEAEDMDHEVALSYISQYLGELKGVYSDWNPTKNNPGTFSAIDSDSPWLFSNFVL
# How the values were obtained:
# BvHSS [1] = molecular target: T2, BvHSS (Blastochloris viridis, UniProt O32323, W229F); experiment: X-ray crystal structure, […] A; assay type: binding; settings: 1.3 mM NAD+ in protein solution; both subunits; PUT soak, no PUT modelled
# T2 construct: gene hss; full length in pETM-14, E. coli BL21(DE3) Gold; dimer, 106 kDa theoretical
# BvHSS [2] = molecular target: T3, BvHSS (Blastochloris viridis, UniProt O32323, E117Q); experiment: X-ray crystal structure, […] A; assay type: binding; settings: 1.3 mM NAD+ in protein solution; both subunits; two ribose conformers
# T3 construct: gene hss; full length in pETM-14, E. coli BL21(DE3) Gold; dimer, 106 kDa theoretical
# BvHSS [3] = molecular target: T4, BvHSS (Blastochloris viridis, UniProt O32323, W229E); experiment: X-ray crystal structure, […] A; assay type: binding; settings: 1.3 mM NAD+ in protein solution; both subunits; PUT soak, no PUT modelled
# T4 construct: gene hss; full length in pETM-14, E. coli BL21(DE3) Gold; dimer, 106 kDa theoretical
# PaHSS = molecular target: T1, PaHSS; experiment: X-ray crystal structure, […] A; assay type: binding
# BvHSS [4] = molecular target: T5, BvHSS (Blastochloris viridis, UniProt O32323, E210A); experiment: X-ray crystal structure, […] A; assay type: binding; settings: 1.3 mM NAD+ in protein solution; both subunits
# T5 construct: gene hss; full length in pETM-14, E. coli BL21(DE3) Gold; dimer, 106 kDa theoretical
# BvHSS [5] = molecular target: T6, BvHSS (Blastochloris viridis, UniProt O32323, W229A); experiment: X-ray crystal structure, […] A; assay type: binding; settings: 1.3 mM NAD+ in protein solution; both subunits; PUT soak
# T6 construct: gene hss; full length in pETM-14, E. coli BL21(DE3) Gold; dimer, 106 kDa theoretical
# BvHSS [6] = molecular target: T7, BvHSS (Blastochloris viridis, UniProt O32323, E210Q); experiment: X-ray crystal structure, […] A; assay type: binding; settings: 1.3 mM NAD+ in protein solution; both subunits
# T7 construct: gene hss; full length in pETM-14, E. coli BL21(DE3) Gold; dimer, 106 kDa theoretical
# [7] = molecular target: the molecule itself; experiment: SEC-MALS; HPLC-MALS of the purified proteins in solution; data not shown; method in Supplementary Section S1
# [8] = molecular target: the molecule itself; experiment: crystal structure; BvHSS variants, hanging-drop vapor diffusion at 291 K, sodium acetate pH 4.6-4.8, PEG 10 000, with NAD+ and agmatine sulfate; space group P22(1)2(1), two molecules in the asymmetric unit
molecule,measurement,setting,value
"NC(=O)c1ccc[n+]([C@@H]2O[C@H](COP(=O)(O)OP(=O)(O)OC[C@H]3O[C@@H](n4cnc5c(N)ncnc54)[C@H](O)[C@@H]3O)[C@@H](O)[C@H]2O)c1 [NAD^+, nicotinamide adenine dinucleotide]","X-ray crystal structure, 2.08 A",BvHSS [1],with each subunit containing an NAD^+ molecule in the binding pocket
same,"X-ray crystal structure, 1.77 A",BvHSS [2],with each subunit containing an NAD^+ molecule in the binding pocket
same,"X-ray crystal structure, 2.76 A",BvHSS [3],with each subunit containing an NAD^+ molecule in the binding pocket
same,"X-ray crystal structure, 2.42 A","PaHSS; 1.3 mM NAD+ in protein solution, all six chains",All six PaHSS molecules contain an NAD^+ molecule in their binding pockets
same,"X-ray crystal structure, 1.75 A",BvHSS [4],with each subunit containing an NAD^+ molecule in the binding pocket
same,"X-ray crystal structure, 2.00 A",BvHSS [5],with each subunit containing an NAD^+ molecule in the binding pocket
same,"X-ray crystal structure, 1.93 A",BvHSS [6],with each subunit containing an NAD^+ molecule in the binding pocket
"NCCCCN [PUT, 1,4-diaminobutane]","X-ray crystal structure, 2.42 A","PaHSS; PUT not added, assumed co-purified from E. coli, active site of chains A, C and E, NAD+ present","molecules A, C and E additionally contain a PUT molecule in the active site"
"Blastochloris viridis homospermidine synthase, wild type (enzyme, also called BvHSS; wild-type BvHSS; source: E. coli BL21(DE3) Gold, purified (as described previously, Krossa et al., 2016)) MTDWPVYHRIDGPIVMIGFGSIGRGTLPLIERHFAFDRSKLVVIDPSDEARKLAEARGVRFIQQAVTRDNYRELLVPLLTAGPGQGFCVNLSVDTSSLDIMELARENGALYIDTVVEPWLGFYFDPDLKPEARSNYALRETVLAARRNKPGGTTAVSCCGANPGMVSWFVKQALVNLAADLGVTGEEPTTREEWARLAMDLGVKGIHIAERDTQRASFPKPFDVFVNTWSVEGFVSEGLQPAELGWGTFERWMPDNARGHDSGCGAGIYLLQPGANTRVRSWTPTAMAQYGFLVTHNESISIADFLTVRDAAGQAVYRPTCHYAYHPCNDAVLSLHEMFGSGKRQSDWRILDETEIVDGIDELGVLLYGHGKNAYWYGSQLSIEETRRIAPDQNATGLQVSSAVLAGMVWALENPNAGIVEADDLDFRRCLEVQTPYLGPVVGVYTDWTPLAGRPGLFPEDIDTSDPWQFRNVLVRD",stoichiometry N,[7],2
"Blastochloris viridis homospermidine synthase variant E117Q (enzyme, homospermidine synthase of Blastochloris viridis, UniProtKB O32323, single-residue variant made by site-directed mutagenesis of BvHSS pETM-14; Same construct as m2 with one substitution; also called BvHSS (E117Q); BvHSS E117Q; source: E. coli BL21(DE3) Gold, purified (as described previously, Krossa et al., 2016)) MTDWPVYHRIDGPIVMIGFGSIGRGTLPLIERHFAFDRSKLVVIDPSDEARKLAEARGVRFIQQAVTRDNYRELLVPLLTAGPGQGFCVNLSVDTSSLDIMELARENGALYIDTVVQPWLGFYFDPDLKPEARSNYALRETVLAARRNKPGGTTAVSCCGANPGMVSWFVKQALVNLAADLGVTGEEPTTREEWARLAMDLGVKGIHIAERDTQRASFPKPFDVFVNTWSVEGFVSEGLQPAELGWGTFERWMPDNARGHDSGCGAGIYLLQPGANTRVRSWTPTAMAQYGFLVTHNESISIADFLTVRDAAGQAVYRPTCHYAYHPCNDAVLSLHEMFGSGKRQSDWRILDETEIVDGIDELGVLLYGHGKNAYWYGSQLSIEETRRIAPDQNATGLQVSSAVLAGMVWALENPNAGIVEADDLDFRRCLEVQTPYLGPVVGVYTDWTPLAGRPGLFPEDIDTSDPWQFRNVLVRD",binding result,[8],binds
"Blastochloris viridis homospermidine synthase variant E210A (enzyme, homospermidine synthase of Blastochloris viridis, UniProtKB O32323, single-residue variant made by site-directed mutagenesis of BvHSS pETM-14; Same construct as m2 with one substitution; also called BvHSS (E210A); BvHSS E210A; source: E. coli BL21(DE3) Gold, purified (as described previously, Krossa et al., 2016)) MTDWPVYHRIDGPIVMIGFGSIGRGTLPLIERHFAFDRSKLVVIDPSDEARKLAEARGVRFIQQAVTRDNYRELLVPLLTAGPGQGFCVNLSVDTSSLDIMELARENGALYIDTVVEPWLGFYFDPDLKPEARSNYALRETVLAARRNKPGGTTAVSCCGANPGMVSWFVKQALVNLAADLGVTGEEPTTREEWARLAMDLGVKGIHIAARDTQRASFPKPFDVFVNTWSVEGFVSEGLQPAELGWGTFERWMPDNARGHDSGCGAGIYLLQPGANTRVRSWTPTAMAQYGFLVTHNESISIADFLTVRDAAGQAVYRPTCHYAYHPCNDAVLSLHEMFGSGKRQSDWRILDETEIVDGIDELGVLLYGHGKNAYWYGSQLSIEETRRIAPDQNATGLQVSSAVLAGMVWALENPNAGIVEADDLDFRRCLEVQTPYLGPVVGVYTDWTPLAGRPGLFPEDIDTSDPWQFRNVLVRD",binding result,[8],binds
"Blastochloris viridis homospermidine synthase variant W229E (enzyme, homospermidine synthase of Blastochloris viridis, UniProtKB O32323, single-residue variant made by site-directed mutagenesis of BvHSS pETM-14; Same construct as m2 with one substitution; also called BvHSS (W229E); BvHSS W229E; source: E. coli BL21(DE3) Gold, purified (as described previously, Krossa et al., 2016)) MTDWPVYHRIDGPIVMIGFGSIGRGTLPLIERHFAFDRSKLVVIDPSDEARKLAEARGVRFIQQAVTRDNYRELLVPLLTAGPGQGFCVNLSVDTSSLDIMELARENGALYIDTVVEPWLGFYFDPDLKPEARSNYALRETVLAARRNKPGGTTAVSCCGANPGMVSWFVKQALVNLAADLGVTGEEPTTREEWARLAMDLGVKGIHIAERDTQRASFPKPFDVFVNTESVEGFVSEGLQPAELGWGTFERWMPDNARGHDSGCGAGIYLLQPGANTRVRSWTPTAMAQYGFLVTHNESISIADFLTVRDAAGQAVYRPTCHYAYHPCNDAVLSLHEMFGSGKRQSDWRILDETEIVDGIDELGVLLYGHGKNAYWYGSQLSIEETRRIAPDQNATGLQVSSAVLAGMVWALENPNAGIVEADDLDFRRCLEVQTPYLGPVVGVYTDWTPLAGRPGLFPEDIDTSDPWQFRNVLVRD",binding result,[8],binds
"Blastochloris viridis homospermidine synthase variant W229A (enzyme, homospermidine synthase of Blastochloris viridis, UniProtKB O32323, single-residue variant made by site-directed mutagenesis of BvHSS pETM-14; Same construct as m2 with one substitution; also called BvHSS (W229A); BvHSS W229A; source: E. coli BL21(DE3) Gold, purified (as described previously, Krossa et al., 2016)) MTDWPVYHRIDGPIVMIGFGSIGRGTLPLIERHFAFDRSKLVVIDPSDEARKLAEARGVRFIQQAVTRDNYRELLVPLLTAGPGQGFCVNLSVDTSSLDIMELARENGALYIDTVVEPWLGFYFDPDLKPEARSNYALRETVLAARRNKPGGTTAVSCCGANPGMVSWFVKQALVNLAADLGVTGEEPTTREEWARLAMDLGVKGIHIAERDTQRASFPKPFDVFVNTASVEGFVSEGLQPAELGWGTFERWMPDNARGHDSGCGAGIYLLQPGANTRVRSWTPTAMAQYGFLVTHNESISIADFLTVRDAAGQAVYRPTCHYAYHPCNDAVLSLHEMFGSGKRQSDWRILDETEIVDGIDELGVLLYGHGKNAYWYGSQLSIEETRRIAPDQNATGLQVSSAVLAGMVWALENPNAGIVEADDLDFRRCLEVQTPYLGPVVGVYTDWTPLAGRPGLFPEDIDTSDPWQFRNVLVRD",binding result,[8],binds
"Blastochloris viridis homospermidine synthase variant E210Q (enzyme, homospermidine synthase of Blastochloris viridis, UniProtKB O32323, single-residue variant made by site-directed mutagenesis of BvHSS pETM-14; Same construct as m2 with one substitution; also called BvHSS (E210Q); BvHSS E210Q; source: E. coli BL21(DE3) Gold, purified (as described previously, Krossa et al., 2016)) MTDWPVYHRIDGPIVMIGFGSIGRGTLPLIERHFAFDRSKLVVIDPSDEARKLAEARGVRFIQQAVTRDNYRELLVPLLTAGPGQGFCVNLSVDTSSLDIMELARENGALYIDTVVEPWLGFYFDPDLKPEARSNYALRETVLAARRNKPGGTTAVSCCGANPGMVSWFVKQALVNLAADLGVTGEEPTTREEWARLAMDLGVKGIHIAQRDTQRASFPKPFDVFVNTWSVEGFVSEGLQPAELGWGTFERWMPDNARGHDSGCGAGIYLLQPGANTRVRSWTPTAMAQYGFLVTHNESISIADFLTVRDAAGQAVYRPTCHYAYHPCNDAVLSLHEMFGSGKRQSDWRILDETEIVDGIDELGVLLYGHGKNAYWYGSQLSIEETRRIAPDQNATGLQVSSAVLAGMVWALENPNAGIVEADDLDFRRCLEVQTPYLGPVVGVYTDWTPLAGRPGLFPEDIDTSDPWQFRNVLVRD",binding result,[8],binds
"Blastochloris viridis homospermidine synthase variant W229F (enzyme, homospermidine synthase of Blastochloris viridis, UniProtKB O32323, single-residue variant made by site-directed mutagenesis of BvHSS pETM-14; Same construct as m2 with one substitution; also called BvHSS (W229F); BvHSS W229F; source: E. coli BL21(DE3) Gold, purified (as described previously, Krossa et al., 2016)) MTDWPVYHRIDGPIVMIGFGSIGRGTLPLIERHFAFDRSKLVVIDPSDEARKLAEARGVRFIQQAVTRDNYRELLVPLLTAGPGQGFCVNLSVDTSSLDIMELARENGALYIDTVVEPWLGFYFDPDLKPEARSNYALRETVLAARRNKPGGTTAVSCCGANPGMVSWFVKQALVNLAADLGVTGEEPTTREEWARLAMDLGVKGIHIAERDTQRASFPKPFDVFVNTFSVEGFVSEGLQPAELGWGTFERWMPDNARGHDSGCGAGIYLLQPGANTRVRSWTPTAMAQYGFLVTHNESISIADFLTVRDAAGQAVYRPTCHYAYHPCNDAVLSLHEMFGSGKRQSDWRILDETEIVDGIDELGVLLYGHGKNAYWYGSQLSIEETRRIAPDQNATGLQVSSAVLAGMVWALENPNAGIVEADDLDFRRCLEVQTPYLGPVVGVYTDWTPLAGRPGLFPEDIDTSDPWQFRNVLVRD",binding result,[8],binds
